Assay results taken from patent US7629310B2, “RhoB as a suppressor of cancer cell growth, cell transformation, and metastasis” (University of South Florida, priority 2000, dated 2009).

Key:
RhoB promoter [1] = assay: RhoB promoter transcriptional activity (luciferase reporter) in human cancer cell lines A-549, Panc-1, C33A; format: cell-based; settings: PANC-1 and A-549 cells expressing mutated K-Ras
From the text: Gene Constructs and RhoB Promoter Transcriptional Activity Assay. Constitutively active H-Ras61L, K-RasV12, N-RasV12, and dominant negative […]-Ras were kind gifts from Dr. Channing Der (University of North Carolina) (Khosravi-Far, R. et al., Mol Cell Biol, 1995, 15:6443-53; Quilliam, L. A. et al., Mol Cell Biol, 1994, 14:1113-21). Wild-type RhoA and RhoB were subcloned into hemaglutinin (HA)-tagged pcDNA3 (INVITROGEN). The orientation and the sequences of these genes were confirmed by DNA sequencing facilities at the H. Lee Moffitt Cancer Center, Tampa, Fla. RhoB promoter construct pGEI was kindly provided by Dr Y. Monden (Banyu Tsukuba Research, Japan) (Nakamura et al., 1996). pCMV-β-galactosidase vector was purchased from INVITROGEN. The plasmid containing CA-, DN-PI3K, Mek and Akt were kindly provided by Dr. Julie Y. Djeu (H. Lee Moffitt Cancer and Research Institute, Tampa, Fla.) (Jiang, K. et al., Blood, 2003, 101:236-44). β-galactosidase activity and luciferase assay kits were purchased from PROMEGA Corporation, Madison, Wis. The serum response element (SRE) reporter was provided by Dr. Richard Jove, H. Lee Moffitt Cancer and Research Institute, Tampa, Fla. […] Richard Jove, Oncology program, H. Lee Moffitt Cancer and Research Institute, Tampa, Fla. […] Human EGFR, ErbB2 cDNA construct were kindly provided by Dr. Noreen Luetteke, H. Lee Moffitt Cancer and Research Institute, Tampa, Fla. (Luetteke, N. C. et al., Genes Dev, 1994, 8:399-413). DNA transfection was performed with the standard lipofectamine protocol (INVITROGEN). Briefly, cells were plated in 60-mm plates, pGEI plasmid was used at 2 μg per plate, whereas all the other plasmids were used at 0.1-1.0 μg per plate. After transfection the cells were grown for another 36-48 h. Cells were then washed twice with PBS and lyzed in Promega Passive Lysis Buffer. Aliquots of the lysates were then used to measure the luciferase and β-galactosidase activities. The luciferase values were first divided by β-galactosidase values. The RhoB promoter transcriptional activity was determined by dividing the luciferase/β-Gal values from oncogene-transfected cells by those from pcDNA3-transfected cells. […] All the samples were performed in triplicate and the averages of 3 independent experiments were reported here. Proteins that induce malignant transformation and those that suppress tumorigenesis most likely antagonize each other's functions. […] Du, W. et al., Mol Cell Biol, 1999, 19:1831-40; Du, W. and Prendergast, G. C., Cancer Res, 1999, 59:5492-6). An objective of the experiments described herein was to determine whether oncogenes that are prevalent in human cancers suppress RhoB expression, and whether RhoB antagonizes the ability of these oncogenes to induce malignant transformation. To this end, the effects of several oncogenes on RhoB promoter transcriptional activity were first evaluated. NIH3T3 cells and human cancer cell lines derived from lung (A-549), pancreatic (Panc-1) and cervical (C33A) tumors were transiently transfected with pcDNA3 empty vectors or pcDNA3 constructs containing various oncogenes along with full length RhoB promoter firefly luciferase reporter and SRE-renilla luciferase reporter as well as a β-gal reporter for controlling transfection efficiency as described in the Materials and Methods section.

RhoB promoter [2] = assay: RhoB promoter transcriptional activity in H-Ras/3T3 cells; format: cell-based; settings: treated 12 hours (FIG. 6B)
From the text: The cell lysates were processed as in FIGS. 5A-5D. […] The cell lysates were processed as in FIGS. 5A-5D. […] The cell lysates were processed as in FIGS. 5A-5D. Gene Constructs and RhoB Promoter Transcriptional Activity Assay. Constitutively active H-Ras61L, K-RasV12, N-RasV12, and dominant negative […]-Ras were kind gifts from Dr. Channing Der (University of North Carolina) (Khosravi-Far, R. et al., Mol Cell Biol, 1995, 15:6443-53; Quilliam, L. A. et al., Mol Cell Biol, 1994, 14:1113-21). Wild-type RhoA and RhoB were subcloned into hemaglutinin (HA)-tagged pcDNA3 (INVITROGEN). The orientation and the sequences of these genes were confirmed by DNA sequencing facilities at the H. Lee Moffitt Cancer Center, Tampa, Fla. RhoB promoter construct pGEI was kindly provided by Dr Y. Monden (Banyu Tsukuba Research, Japan) (Nakamura et al., 1996). pCMV-β-galactosidase vector was purchased from INVITROGEN. The plasmid containing CA-, DN-PI3K, Mek and Akt were kindly provided by Dr. Julie Y. Djeu (H. Lee Moffitt Cancer and Research Institute, Tampa, Fla.) (Jiang, K. et al., Blood, 2003, 101:236-44). β-galactosidase activity and luciferase assay kits were purchased from PROMEGA Corporation, Madison, Wis. […] The RhoB promoter transcriptional activity was determined by dividing the luciferase/β-Gal values from oncogene-transfected cells by those from pcDNA3-transfected cells. […]

Compound: O=c1[nH]cc(F)c(=O)[nH]1 [5-FU, 5-fluorouracil]
- 5-FU induction of RhoB promoter activity (RhoB promoter [1]): both cell lines are resistant to 5-FU
- induction of RhoB promoter activity (RhoB promoter [2]): little effect
